Experimental data from US9556179B2 (BRISTOL-MYERS SQUIBB COMPANY, priority 2012, dated 2017).

These molecules were tested against CK1δ (Homo sapiens (Human), UniProt P48730) (assay: CK1δ kinase assay (Caliper LABCHIP electrophoretic separation of fluoresceinated peptide substrate and product)). Details: 200 pM enzyme, 50 μM ATP, 22 hours at room temperature.
Format: biochemical
Experimental: (§1) CK1ε and CK1δ Kinase Assays
(§2) The kinase assay was performed in V-bottom 384-well plates. […] The reaction was incubated at room temperature for 22 hours and terminated by adding 45 μl of 35 mM EDTA to each sample. The reaction mixture was analyzed on the Caliper LABCHIP®3000 (Caliper, Hopkinton, Mass.) by electrophoretic separation of the unphosphorylated substrate and phosphorylated product. […] Compounds were dissolved at 10 mM in dimethylsulfoxide (DMSO) and evaluated at eleven concentrations. IC50 values were derived by non-linear regression analysis.

CK1δ, sequence (P48730 whole entry): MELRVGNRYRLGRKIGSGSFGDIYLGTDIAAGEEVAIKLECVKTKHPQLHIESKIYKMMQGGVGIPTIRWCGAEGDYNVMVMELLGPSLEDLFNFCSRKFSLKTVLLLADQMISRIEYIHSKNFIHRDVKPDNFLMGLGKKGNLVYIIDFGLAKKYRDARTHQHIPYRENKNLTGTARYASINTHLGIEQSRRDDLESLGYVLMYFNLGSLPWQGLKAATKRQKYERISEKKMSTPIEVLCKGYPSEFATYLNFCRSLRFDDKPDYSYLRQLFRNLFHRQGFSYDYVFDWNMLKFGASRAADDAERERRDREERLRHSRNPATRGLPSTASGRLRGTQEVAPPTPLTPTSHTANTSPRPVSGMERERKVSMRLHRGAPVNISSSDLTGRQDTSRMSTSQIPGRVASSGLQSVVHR

IC50 | Compound
0.064 nM | O=C(Nc1cn2nc(-c3c(-c4ccc(F)cc4)ncn3C3CCNCC3)ccc2n1)c1ccncc1 [Compound 1, N-(6-(4-(4-fluorophenyl)-1-(piperidin-4-yl)-1H-imidazol-5-yl)imidazo[1,2-b]pyridazin-2-yl)isonicotinamide]
0.204 nM | O=C(Nc1cn2nc(-c3c(-c4ccc(Cl)cc4)ncn3CC(F)F)ccc2n1)c1ccnc(F)c1 [Compound 244, N-(6-(4-(4-chlorophenyl)-1-(2,2-difluoroethyl)-1H-imidazol-5-yl)imidazo[1,2-b]pyridazin-2-yl)-2-fluoroisonicotinamide]
0.193 nM | O=C(Nc1cn2nc(-c3c(-c4ccc(F)cc4)ncn3C3CCN(C(=O)C4CCC4)CC3)ccc2n1)c1ccnc(F)c1 [Compound 68, N-(6-(1-(1-(cyclobutanecarbonyl)piperidin-4-yl)-4-(4-fluorophenyl)-1H-imidazol-5-yl)imidazo[1,2-b]pyridazin-2-yl)-2-fluoroisonicotinamide]
0.226 nM | O=C(Nc1cn2nc(-c3c(-c4ccc(F)cc4)ncn3C3CCN(Cc4ncco4)CC3)ccc2n1)c1ccnc(F)c1 [Compound 29, 2-fluoro-N-(6-(4-(4-fluorophenyl)-1-(1-(oxazol-2-ylmethyl)piperidin-4-yl)-1H-imidazol-5-yl)imidazo[1,2-6]pyridazin-2-yl)isonicotinamide]
1.21 nM | Cc1nc(-c2ccc(F)cc2)c(-c2ccc3nc(NC(=O)C(=O)c4ccccc4)cn3n2)n1C [Compound 317, N-(6-(4-(4-fluorophenyl)-1,2-dimethyl-1H-imidazol-5-yl)imidazo[1,2-b]pyridazin-2-yl)-2-oxo-2-phenylacetamide]

These molecules were tested against CK1ε (Homo sapiens (Human), UniProt P49674) (assay: CK1ε kinase assay (Caliper LABCHIP electrophoretic separation of fluoresceinated peptide substrate and product)). Details: 200 pM enzyme, 50 μM ATP, 22 hours at room temperature.
CK1ε, sequence (P49674 whole entry): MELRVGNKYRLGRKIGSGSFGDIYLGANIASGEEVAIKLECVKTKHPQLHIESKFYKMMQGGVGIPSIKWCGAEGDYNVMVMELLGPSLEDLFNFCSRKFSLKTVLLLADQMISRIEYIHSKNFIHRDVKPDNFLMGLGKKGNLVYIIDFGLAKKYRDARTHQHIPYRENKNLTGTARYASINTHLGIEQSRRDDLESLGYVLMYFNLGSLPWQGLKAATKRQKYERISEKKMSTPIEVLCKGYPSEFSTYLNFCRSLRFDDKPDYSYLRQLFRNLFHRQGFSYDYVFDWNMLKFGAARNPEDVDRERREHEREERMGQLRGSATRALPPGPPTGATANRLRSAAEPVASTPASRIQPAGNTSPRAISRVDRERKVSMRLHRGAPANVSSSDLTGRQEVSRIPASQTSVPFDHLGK
Format: biochemical
Experimental: as §1, §2

IC50 | Compound
2.01 nM | Cc1nnsc1C(=O)Nc1cn2nc(-c3c(-c4ccc(F)cc4)nc(C)n3C)ccc2n1 [Compound 351, N-(6-(4-(4-fluorophenyl)-1,2-dimethyl-1H-imidazol-5-yl)imidazo[1,2-b]pyridazin-2-yl)-4-methyl-1,2,3-thiadiazole-5-carboxamide]
3.07 nM | Cc1nc(-c2ccncc2)sc1C(=O)Nc1cn2nc(-c3c(-c4ccc(F)cc4)ncn3C3CN(CCO)C3)ccc2n1 [Compound 152, N-(6-(4-(4-fluorophenyl)-1-(1-(2-hydroxyethyl)azetidin-3-yl)-1H-imidazol-5-yl)imidazo[1,2-b]pyridazin-2-yl)-4-methyl-2-(pyridin-4-yl)thiazole-5-carboxamide]
0.096 nM | Cc1nc(-c2ccncc2)sc1C(=O)Nc1cn2nc(-c3c(-c4ccc(F)cc4)ncn3C3CCN(CCO)CC3)ccc2n1 [Compound 105, N-(6-(4-(4-fluorophenyl)-1-(1-(2-hydroxyethyl)piperidin-4-yl)-1H-imidazol-5-yl)imidazo[1,2-b]pyridazin-2-yl)-4-methyl-2-(pyridin-4-yl) thiazole-5-carboxamide]
2.32 nM | Cc1nc(-c2ccc(F)cc2)c(-c2ccc3nc(NC(=O)c4cncnc4)cn3n2)n1C [Compound 350, N-(6-(4-(4-fluorophenyl)-1,2-dimethyl-1H-imidazol-5-yl)imidazo[1,2-b]pyridazin-2-yl)-5-pyrimidinecarboxamide]
2 nM | O=C(Nc1cn2nc(-c3c(-c4ccc(F)cc4)ncn3C3CCN(Cc4ccc(O)nc4)CC3)ccc2n1)c1ccnc(F)c1 [Compound 30, 2-fluoro-N-(6-(4-(4-fluorophenyl)-1-(1-((6-hydroxypyridin-3-yl)methyl)piperidin-4-yl)-1H-imidazol-5-yl)imidazo[1,2-b]pyridazin-2-yl)isonicotinamide]
5.29 nM | Cc1nc(-c2ccc(F)cc2)c(-c2ccc3nc(NC(=O)c4ccncc4)cn3n2)n1C [Compound 301, N-(6-(4-(4-Fluorophenyl)-1,2-dimethyl-1H-imidazol-5-yl)imidazo[1,2-b]pyridazin-2-yl)isonicotinamide]
0.966 nM | Cc1nc(-c2cccnc2)sc1C(=O)Nc1cn2nc(-c3c(-c4ccc(F)cc4)ncn3C3CCN(C)CC3)ccc2n1 [Compound 96]
0.461 nM | O=C(Nc1cn2nc(-c3c(-c4ccc(F)cc4)ncn3C3CCN(C(=O)OCCC(F)(F)F)CC3)ccc2n1)c1ccnc(F)c1 [Compound 83, 3,3,3-trifluoropropyl 4-(5-(2-(2-fluoroisonicotinamido)imidazo[1,2-b]pyridazin-6-yl)-4-(4-fluorophenyl)-1H-imidazol-1-yl)piperidine-1-carboxylate]
0.952 nM | O=C(Nc1cn2nc(-c3c(-c4ccc(F)cc4)ncn3C3CCN(C(=O)c4cocn4)CC3)ccc2n1)c1ccnc(F)c1 [Compound 43, 2-fluoro-N-(6-(4-(4-fluorophenyl)-1-(1-(oxazole-4-carbonyl)piperidin-4-yl)-1H-imidazol-5-yl)imidazo[1,2-6]pyridazin-2-yl)isonicotinamide]
0.391 nM | Cc1nocc1C(=O)N1CCC(n2cnc(-c3ccc(F)cc3)c2-c2ccc3nc(NC(=O)c4ccnc(F)c4)cn3n2)CC1 [Compound 63, 2-fluoro-N-(6-(4-(4-fluorophenyl)-1-(1-(3-methylisoxazole-4-carbonyl)piperidm-4-yl)-1H-imidazol-5-yl)imidazo[1,2-6]pyridazin-2-yl)isonicotinamide]
0.564 nM | O=C(Nc1cn2nc(-c3c(-c4ccc(F)cc4)ncn3C3CCN(CCO)CC3)ccc2n1)c1ccnc2ccccc12 [Compound 111, N-(6-(4-(4-fluorophenyl)-1-(1-(2-hydroxyethyl)piperidin-4-yl)-1H-imidazol-5-yl)imidazo[1,2-b]pyridazin-2-yl)quinoline-4-carboxamide]
6.89 nM | Cc1cc(C(=O)Nc2cn3nc(-c4c(-c5ccc(F)cc5)nc(C)n4C)ccc3n2)[nH]n1 [Compound 349, N-(6-(4-(4-fluorophenyl)-1,2-dimethyl-1H-imidazol-5-yl)imidazo[1,2-b]pyridazin-2-yl)-5-methyl-1H-pyrazole-3-carboxamide]
1.03 nM | O=C(Nc1cn2nc(-c3c(-c4ccc(F)cc4)ncn3C3CCNCC3)ccc2n1)c1ccnc2ccccc12 [Compound 109, N-(6-(4-(4-fluorophenyl)-1-(piperidin-4-yl)-1H-imidazol-5-yl)imidazo[1,2-b]pyridazin-2-yl)quinoline-4-carboxamide]
1.77 nM | O=C(Nc1cn2nc(-c3c(-c4ccc(F)cc4)ncn3C3CCN(C[C@@H](O)C(F)(F)F)CC3)ccc2n1)c1ccncc1 [Compound 7, (R)—N-(6-(4-(4-fluorophenyl)-1-(1-(3,3,3-trifluoro-2-hydroxypropyl)piperidin-4-yl)-1H-imidazol-5-yl)imidazo[1,2-b]pyridazin-2-yl)isonicotinamide]
0.17 nM | Cc1nc(-c2cccnc2)sc1C(=O)Nc1cn2nc(-c3c(-c4ccc(F)cc4)ncn3C3CCNCC3)ccc2n1 [Compound 95, N-(6-(4-(4-fluorophenyl)-1-(piperidin-4-yl)-1H-imidazol-5-yl)imidazo[1,2-b]pyridazin-2-yl)-4-methyl-2-(pyridin-3-yl)thiazole-5-carboxamide]
5.18 nM | O=C(Nc1cn2nc(-c3c(-c4ccc(F)cc4)ncn3C3COC3)ccc2n1)c1ccnc(F)c1 [Compound 239, 2-fluoro-N-(6-(4-(4-fluorophenyl)-1-(oxetan-3-yl)-1H-imidazol-5-yl)imidazo[1,2-b]pyridazin-2-yl)iso-nicotinamide]
2.82 nM | O=C(Nc1cn2nc(-c3c(-c4ccc(F)cc4)ncn3CC(O)CO)ccc2n1)c1ccnc(F)c1 (centres unmarked) [Compound 235, N-(6-(1-(2,3-dihydroxypropyl)-4-(4-fluorophenyl)-1H-imidazol-5-yl)imidazo[1,2-b]pyridazin-2-yl)-2-fluoroisonicotinamide, dimethyl-formamide]
11.9 nM | Cc1nc(-c2ccc(F)cc2)c(-c2ccc3nc(NC(=O)c4ccno4)cn3n2)n1C [Compound 387, N-(6-(4-(4-fluorophenyl)-1,2-dimethyl-1H-imidazol-5-yl)imidazo[1,2-b]pyridazin-2-yl)isoxazole-5-carboxamide]
1.27 nM | O=C(Nc1cn2nc(-c3c(-c4ccc(F)cc4)ncn3C3CCN(C(=O)CC(F)(F)F)CC3)ccc2n1)c1cc(F)nc(F)c1 [Compound 94, 2,6-difluoro-N-(6-(4-(4-fluorophenyl)-1-(1-(3,3,3-trifluoropropanoyl)piperidin-4-yl)-1H-imidazol-5-yl)imidazo[1,2-b]pyridazin-2-yl)isonicotinamide]
48.4 nM | Cc1nc(-c2ccc(F)cc2)c(-c2ccc3nc(NC(=O)c4nc[nH]n4)cn3n2)n1C [Compound 368, N-(6-(4-(4-fluorophenyl)-1,2-dimethyl-1H-imidazol-5-yl)imidazo[1,2-b]pyridazin-2-yl)-1H-1,2,4-triazole-3-carboxamide]
34.2 nM | Cc1cc(C(=O)Nc2cn3nc(-c4c(-c5ccc(F)cc5)nc(C)n4C)ccc3n2)n[nH]1 [Compound 401, N-(6-(4-(4-fluorophenyl)-1,2-dimethyl-1H-imidazol-5-yl)imidazo[1,2-b]pyridazin-2-yl)-5-methyl-1H-pyrazole-3-carboxamide]
2.68 nM | Cc1nc(-c2ccc(F)cc2)c(-c2ccc3nc(NC(=O)c4ccnc(N)c4)cn3n2)n1C [Compound 323, 2-amino-N-(6-(4-(4-fluoro-phenyl)-1,2-dimethyl-1H-imidazol-5-yl)imidazo[1,2-b]pyridazin-2-yl)isonicotin-amide]
5.38 nM | Cc1nc(-c2ccc(F)cc2)c(-c2ccc3nc(NC(=O)c4cncn4C)cn3n2)n1C [Compound 360, N-(6-(4-(4-fluorophenyl)-1,2-dimethyl-1H-imidazol-5-yl)imidazo[1,2-b]pyridazin-2-yl)-1-methyl-1H-imidazole-5-carboxamide]

Compound | IC50
CC(C)(C)OCCn1cnc(-c2ccc(F)cc2)c1-c1ccc2nc(NC(=O)c3ccnc(F)c3)cn2n1 [Compound 260, N-(6-(1-(2-tert-butoxyethyl)-4-(4-fluorophenyl)-1H-imidazol-5-yl)imidazo[1,2-b]pyridazin-2-yl)-2-fluoroisonicotinamide] | 5.53 nM
